Results as given in ChEMBL document CHEMBL1143118, “6-Acetyl-7,7-dimethyl-5,6,7,8-tetrahydropterin is an activator of nitric oxide synthases” (Bioorg Med Chem Lett, 2008).

Tests used:
Nitric oxide synthase 1 = Nitric oxide synthase 1 (Homo sapiens, UniProt P29475); assay: Activity of tetrahydrobiopterin free nNOS
Aortic ring [1] = assay: Relaxation of phenyphrine-induced constriction in rat aortic rings; format: functional, tissue-based; settings: Aorta
Macrophage = assay: Effect on nitric oxide production in tetrahydrobiopterin depleted mouse bone marrow macrophages at 1 uM after 72 hrs; format: functional
Aortic ring [2] = assay: Relaxation of phenyphrine-induced constriction in rat aortic rings at 0.3 mM relative to control; format: functional, Aorta; set-up: scale not given: the % may be the effect or the level left
[3] = Effect on nitric oxide production in tetrahydrobiopterin depleted pig pulmonary artery endothelial cells at 30 uM after 72 hrs; format: functional, Sus scrofa, Endothelial cell
Aortic ring [4] = assay: Relaxation of phenyphrine-induced constriction in rat aortic rings in presence of L-NAME; format: functional, Aorta; set-up: scale not given: the % may be the effect or the level left

Chain of Nitric oxide synthase 1 (P29475 whole entry): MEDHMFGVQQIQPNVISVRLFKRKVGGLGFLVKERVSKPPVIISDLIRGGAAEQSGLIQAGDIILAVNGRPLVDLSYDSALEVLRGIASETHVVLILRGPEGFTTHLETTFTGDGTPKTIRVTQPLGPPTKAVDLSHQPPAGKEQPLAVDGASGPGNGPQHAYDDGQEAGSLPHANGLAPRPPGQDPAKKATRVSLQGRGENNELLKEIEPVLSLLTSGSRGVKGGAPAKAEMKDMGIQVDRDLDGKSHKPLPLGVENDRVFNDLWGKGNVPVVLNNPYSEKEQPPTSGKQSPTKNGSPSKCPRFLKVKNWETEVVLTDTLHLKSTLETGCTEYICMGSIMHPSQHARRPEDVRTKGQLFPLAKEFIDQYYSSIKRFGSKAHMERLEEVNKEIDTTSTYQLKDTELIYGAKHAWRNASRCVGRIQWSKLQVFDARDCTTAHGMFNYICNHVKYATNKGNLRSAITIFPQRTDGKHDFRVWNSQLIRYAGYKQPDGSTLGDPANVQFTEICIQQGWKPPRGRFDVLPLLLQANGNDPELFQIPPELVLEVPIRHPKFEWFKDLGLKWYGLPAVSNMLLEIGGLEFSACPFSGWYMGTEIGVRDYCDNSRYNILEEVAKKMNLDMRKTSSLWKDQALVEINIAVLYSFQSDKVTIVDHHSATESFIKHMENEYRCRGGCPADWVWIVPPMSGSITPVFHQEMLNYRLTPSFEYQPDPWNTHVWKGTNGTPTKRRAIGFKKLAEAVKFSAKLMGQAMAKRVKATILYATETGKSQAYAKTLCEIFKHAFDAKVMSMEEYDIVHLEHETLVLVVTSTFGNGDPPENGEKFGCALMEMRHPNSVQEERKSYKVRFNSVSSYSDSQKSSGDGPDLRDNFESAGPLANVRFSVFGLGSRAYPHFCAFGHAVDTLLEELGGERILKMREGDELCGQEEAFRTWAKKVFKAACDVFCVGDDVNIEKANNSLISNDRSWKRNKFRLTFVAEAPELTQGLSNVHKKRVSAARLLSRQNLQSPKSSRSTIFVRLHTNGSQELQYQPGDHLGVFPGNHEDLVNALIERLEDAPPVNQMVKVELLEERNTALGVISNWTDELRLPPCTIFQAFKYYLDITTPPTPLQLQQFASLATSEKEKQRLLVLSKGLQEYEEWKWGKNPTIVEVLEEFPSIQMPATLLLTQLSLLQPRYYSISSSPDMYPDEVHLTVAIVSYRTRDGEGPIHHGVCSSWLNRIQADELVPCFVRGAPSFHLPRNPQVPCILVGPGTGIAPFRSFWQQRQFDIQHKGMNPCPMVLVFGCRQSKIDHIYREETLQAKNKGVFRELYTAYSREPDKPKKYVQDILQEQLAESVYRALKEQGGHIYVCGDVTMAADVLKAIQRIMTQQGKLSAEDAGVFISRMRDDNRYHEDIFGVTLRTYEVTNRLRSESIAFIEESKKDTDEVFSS

Kd (Nitric oxide synthase 1) [µM] | EC50 (Aortic ring [1]) [µM] | SMILES | Activity (Macrophage) [µM] | Activity (Aortic ring [2]) [%] | Activity [3] [µM] | Activity (Aortic ring [4]) [%]
1.12 |  | C[C@H](O)[C@H](O)[C@H]1CNc2nc(N)[nH]c(=O)c2N1 [SAPROPTERIN] |  |  |  | 
 | 0.01 | CC(=O)C1=Nc2c(nc(N)[nH]c2=O)NC1(C)C | 6.2 | 24.2 | 11.4 | 5.4
151 |  | CC(=O)C1Nc2c(nc(N)[nH]c2=O)NC1(C)C (configuration not stated) |  |  |  | 
